This passage reports K ass and Survival time results from ChEMBL document CHEMBL1133816, “Potent second generation vinyl sulfonamide inhibitors of the trypanosomal cysteine protease cruzain” (2001).

The target of assay [1] is Cruzipain (Trypanosoma cruzi) (UniProt P25779). As to the kind of experiment: Second order rate constant for inactivation of cruzain of Trypanosoma cruzi.
For assay [2], the system named is Trypanosoma cruzi. As to the kind of experiment: Effect on survival time of against […] macrophages infected with Trypanosoma cruzi trypomastigotes at a concentration of 10 uM. The assay is classed as functional.
The test system of assay [3] is Trypanosoma cruzi. As to the kind of experiment: Effect on survival time of against […] macrophages infected with Trypanosoma cruzi trypomastigotes at a concentration of 30 uM. The assay is classed as functional, organism-based.

Chain of Cruzipain (Trypanosoma cruzi) (P25779 123-467 limits assumed): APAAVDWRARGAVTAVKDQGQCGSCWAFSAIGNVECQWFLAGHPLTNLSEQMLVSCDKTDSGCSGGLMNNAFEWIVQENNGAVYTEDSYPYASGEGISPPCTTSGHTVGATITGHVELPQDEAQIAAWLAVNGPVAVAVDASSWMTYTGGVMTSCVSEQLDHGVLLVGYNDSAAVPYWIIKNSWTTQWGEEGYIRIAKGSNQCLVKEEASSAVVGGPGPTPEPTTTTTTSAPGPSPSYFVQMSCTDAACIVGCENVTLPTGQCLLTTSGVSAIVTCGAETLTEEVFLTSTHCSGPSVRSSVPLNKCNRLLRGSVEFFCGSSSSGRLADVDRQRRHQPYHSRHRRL

As for `O=C(N[C@H](/C=C/S(=O)(=O)c1ccccc1)CCc1ccccc1)[C@H](Cc1ccccc1)NC(=O)N1CCOCC1`, the K ass in assay [1] was 181000 M⁻¹ s⁻¹. Moreover, the Survival time in assay [2] was >24 days.
Consider `O=C(N[C@H](/C=C/S(=O)(=O)Nc1ccccc1)CCc1ccccc1)[C@H](Cc1ccccc1)NC(=O)N1CCOCC1`, for which the K ass in assay [1] was found to be 4.92e+06 M⁻¹ s⁻¹. Moreover, in assay [2], the Survival time worked out at 9 days.
`CN1CCN(C(=O)N[C@@H](Cc2ccccc2)C(=O)N[C@H](/C=C/S(=O)(=O)Cc2ccccc2)CCc2ccccc2)CC1` registered a K ass in assay [1] of 3.85e+06 M⁻¹ s⁻¹. This compound also came in with a Survival time in assay [2] of 13 days.
Compound `O=C(N[C@H](/C=C/S(=O)(=O)NOCc1ccccc1)CCc1ccccc1)[C@H](Cc1ccccc1)NC(=O)N1CCOCC1` displayed a K ass in assay [1] of 2.27e+06 M⁻¹ s⁻¹. The Survival time in assay [2] is >24 days.
For the compound `O=C(N[C@@H](Cc1ccccc1)C(=O)N[C@H](/C=C/S(=O)(=O)Nc1ccccc1)CCc1ccccc1)OCc1ccccc1`, in assay [1], the K ass amounted to 242000 M⁻¹ s⁻¹. In addition, in assay [2], the Survival time turned out to be 6 days.
`O=C(N[C@H](/C=C/S(=O)(=O)Oc1ccccc1)CCc1ccccc1)[C@H](Cc1ccccc1)NC(=O)N1CCOCC1`: the K ass in assay [1] was 1.02e+07 M⁻¹ s⁻¹. The Survival time result in assay [2] was “Toxic”.
With `CN1CCN(C(=O)N[C@@H](Cc2ccccc2)C(=O)N[C@H](/C=C/S(=O)(=O)Oc2ccccc2)CCc2ccccc2)CC1`, the K ass in assay [1] was 720000 M⁻¹ s⁻¹. In assay [2], this compound returned a Survival time of 9 days.
Taken in the same sequence, the figures for `O=C(N[C@H](/C=C/S(=O)(=O)Cc1ccccc1)CCc1ccccc1)[C@H](Cc1ccccc1)NC(=O)N1CCOCC1` were 1.67e+06 M⁻¹ s⁻¹ and 20 days.
For `O=C(N[C@@H](Cc1ccccc1)C(=O)N[C@H](/C=C/S(=O)(=O)Cc1ccccc1)CCc1ccccc1)OCc1ccccc1`, in that order: 1.4e+06 M⁻¹ s⁻¹ and 6 days.
In turn, `CN1CCN(C(=O)N[C@@H](Cc2ccccc2)C(=O)N[C@H](/C=C/S(=O)(=O)Nc2ccccc2)CCc2ccccc2)CC1` gave a K ass in assay [1] of 1.26e+06 M⁻¹ s⁻¹. In addition, in assay [2], the Survival time amounted to 9 days.
`CN1CCN(C(=O)N[C@@H](Cc2ccccc2)C(=O)N[C@H](/C=C/S(=O)(=O)c2ccccc2)CCc2ccccc2)CC1` [K-777] returned a K ass in assay [1] of 420000 M⁻¹ s⁻¹. The Survival time in assay [2] was >24 days.
`CN1CCN(C(=O)N[C@@H](Cc2ccccc2)C(=O)N[C@H](/C=C/S(=O)(=O)NOCc2ccccc2)CCc2ccccc2)CC1` gave a K ass in assay [1] of 6.48e+06 M⁻¹ s⁻¹. The Survival time in assay [2] was >24 days.
For `O=C(N[C@@H](Cc1ccccc1)C(=O)N[C@H](/C=C/S(=O)(=O)Oc1ccccc1)CCc1ccccc1)OCc1ccccc1`, the K ass in assay [1] is 1.68e+07 M⁻¹ s⁻¹. Moreover, the Survival time result in assay [3] is “Toxic”.
